Reference: US10159252B2, “Fungicidal compounds and compositions” (AgroFresh Inc., priority 2015, dated 2018)
Where a name gives a salt, the structure may show the parent alone.

Columns and labels:
Penicillium expansum [1] = assay: In vivo volatile bioassay on inoculated fruit (apple, pear); conditions: P. expansum, 10 mg/L headspace, sublimed, 3 day treatment plus additional 3 days at 21° C.
Method: (§1) To assess the in vivo activity of volatile antimicrobial compound of Sample 1 (see Example 1) in fruit, a volatile bioassay is developed using apple, pear, orange, strawberry, grape and blueberry. Two apples, two oranges, two pears, eight strawberries, sixteen grapes or thirty blueberries (per rep, in duplicate) are placed in a clamshell with the stem end facing up for all fruits except for strawberry (stem end facing downwards). A fresh wound is inoculated with 20 μL 1×10^6 per mL Penicillium expansum (P. expansum) spore suspension (apple and pear), 20 μL×1×10^6 per mL Penicillium digitatum (P. digitatum) spore suspension (orange), and 20 μL×1×10^6 (strawberry and grape) or 10 μL (blueberry) of 1×10^5 per mL Botrytis cinerea (B. cinerea) spore suspension. The clamshells are placed inside a 117 L Rubbermaid storage box (Cat #2244), and the lids closed.
(§2) Sample 1, prepared according to Example 1 and dissolved in acetone, is pipetted onto a cotton strip, where the acetone is allowed to evaporate for 5 min, and then introduced into the container by a sublimation device (copper tube heated to 200° C. with fan flow at 0.5 liters per minute (L/min)) to achieve a final headspace concentration of 10 mg/L). The containers are then held for 3 d at 21° C. After treatment, the fruits are held for an additional 3 d at 21° C., then evaluated for disease incidence (millimeter (mm) diameter of browning or water-soaked lesions) and pathogen sporulation (mm diameter) for apple, pear and orange, as well as Botrytis cinerea disease incidence (%) and severity (0 to 4) for strawberry, grape and blueberry. Results are summarized in Table 2 showing good in vivo antimicrobial control of three fungal pathogens on six different hosts when applied as a volatile fungicide. Results are also depicted in FIG. 1.

Penicillium expansum [2] = assay: In vitro volatile inhibition assay, 12-well plate, half-strength PDA; type: cell-based; conditions: P. expansum, 3 d at 23° C.; for percent growth relative to control: volatile
Method: (§3) A 12-well microtiter plate (6.5 milliliter (mL) volume per well) is used for the in vitro inhibition assay for volatile antimicrobial compound of Sample 1 (see Example 1) against two plant fungal pathogens. A 3-mL volume of half-strength Potato Dextrose Agar (PDA) is added to each well. After cooling, 1 microliter (μL) of 1×10^5 spores per mL of Botrytis cinerea (B. cinerea) or Penicillium expansum (P. expansum) suspension is spotted to the center of the agar. A Whatman #1 filter disk (Cat. No. 1001-0155) is placed, in duplicate, on the underside of a polyethylene polymerase chain reaction (PCR) plate sealing film.
(§4) For determination of the minimum inhibitory concentration (MIC), the test compound is diluted in acetone, and the appropriate amount of compound added to disks in a dose dependent manner to achieve a final headspace concentration of 35.7 to 0.03 milligrams per liter (mg/L). The acetone is permitted to evaporate for 5 min. The headspace around the inoculum is then sealed inside the well by the film with the adhering disk containing the fungicide. The plates are inverted, placed over the treated disks and sealed to prevent any of the chemical from flaking from the disk and falling onto the inoculated agar. After 3 days (d) of storage at 23° C., cultures are evaluated for percent growth relative to control. Results are summarized in Table 1 showing the ability of benzoxaborole compound of Sample 1 to control the growth of two fungal plant pathogens through volatile activity.

Botrytis cinerea [3] = assay: as above; type: cell-based; conditions: B. cinerea, 3 d at 23° C.; for percent growth relative to control: volatile
Method: as §3, §4

Botrytis cinerea [4] = assay: In vivo volatile bioassay on inoculated fruit (strawberry, grape, blueberry); conditions: B. cinerea, 10 mg/L headspace, sublimed, 3 day treatment plus additional 3 days at 21° C.
Method: as §1, §2

Penicillium digitatum = assay: In vivo volatile bioassay on inoculated fruit (orange); conditions: P. digitatum, 10 mg/L headspace, sublimed, 3 day treatment plus additional 3 days at 21° C.
Description: To assess the in vivo activity of volatile antimicrobial compound of Sample 1 (see Example 1) in fruit, a volatile bioassay is developed using apple, pear, orange, strawberry, grape and blueberry. Two apples, two oranges, two pears, eight strawberries, sixteen grapes or thirty blueberries (per rep, in duplicate) are placed in a clamshell with the stem end facing up for all fruits except for strawberry (stem end facing downwards). […]
as §2, with “The containers are then held for 3 d at 21° C.” left out, “Results are summarized in Table 2 showing good in vivo antimicrobial control of three fungal pathogens on six different hosts when applied as a volatile fungicide. Results are also depicted in FIG. 1.” left out

[5] = headspace concentration 0.03 mg/L
[6] = headspace concentration 0.07 mg/L
[7] = headspace concentration 0.1 mg/L
[8] = headspace concentration 0.3 mg/L
[9] = headspace concentration 0.6 mg/L
[10] = headspace concentration 1.1 mg/L
[11] = headspace concentration 2.2 mg/L
[12] = headspace concentration 4.5 mg/L
[13] = headspace concentration 8.9 mg/L
[14] = headspace concentration 17.9 mg/L
[15] = headspace concentration 35.7 mg/L
[16] = Penicillium expansum, 72 h, applied as a volatile fungicide, headspace concentration
[17] = Botrytis cinerea, 72 h, applied as a volatile fungicide, headspace concentration

## Fc1ccc2c(c1)CO[B-]2(F)F [Sample 1, potassium 1,1,5-trifluoro-1,3-dihydro-2,1-benzoxaborolate salt]
Penicillium expansum [1]; Apple
  Browning (mm): 4.8 mm
  Sporulation (mm): 7.3 mm
Penicillium expansum [1]; Pear
  Browning (mm): 5.3 mm
  Sporulation (mm): 4.3 mm
Penicillium expansum [2]; [5]
  percent growth relative to control: −2.7%
Penicillium expansum [2]; [6]
  percent growth relative to control: −1.9%
Penicillium expansum [2]; [7]
  percent growth relative to control: −3.3%
Penicillium expansum [2]; [8]
  percent growth relative to control: −8.2%
Penicillium expansum [2]; [9]
  percent growth relative to control: 12.9%
Penicillium expansum [2]; [10]
  percent growth relative to control: 56.2%
Penicillium expansum [2]; [11]
  percent growth relative to control: 73%
Penicillium expansum [2]; [12]
  percent growth relative to control: 100%
Penicillium expansum [2]; [13]
  percent growth relative to control: 100%
Penicillium expansum [2]; [14]
  percent growth relative to control: 100%
Penicillium expansum [2]; [15]
  percent growth relative to control: 100%
Penicillium expansum [2]; [16]
  EC50: 1.2 µg/mL
  MIC: 4.5 µg/mL
Botrytis cinerea [3]; [5]
  percent growth relative to control: 0%
Botrytis cinerea [3]; [6]
  percent growth relative to control: 0%
Botrytis cinerea [3]; [7]
  percent growth relative to control: 0%
Botrytis cinerea [3]; [8]
  percent growth relative to control: 0%
Botrytis cinerea [3]; [9]
  percent growth relative to control: 64.8%
Botrytis cinerea [3]; [10]
  percent growth relative to control: 100%
Botrytis cinerea [3]; [11]
  percent growth relative to control: 100%
Botrytis cinerea [3]; [12]
  percent growth relative to control: 100%
Botrytis cinerea [3]; [13]
  percent growth relative to control: 100%
Botrytis cinerea [3]; [14]
  percent growth relative to control: 100%
Botrytis cinerea [3]; [15]
  percent growth relative to control: 100%
Botrytis cinerea [3]; [17]
  EC50: 0.5 µg/mL
  MIC: 1.1 µg/mL
Botrytis cinerea [4]; Blueberry
  Incidence (%): 5.0%
  Severity (0-4): 0.06
Botrytis cinerea [4]; Grape
  Incidence (%): 23.3%
  Severity (0-4): 0.12
Botrytis cinerea [4]; Strawberry
  Incidence (%): 6.3%
  Severity (0-4): 0.03
Penicillium digitatum
  Sporulation (mm): 0.0 mm
  Water soaked lesion (mm): 12.7 mm
